Data set [1] deals with human umbilical chord artery endothelial cells (HUAEC). In words: Ca-influx after vasopressin analog stimulation of HUAEC, samples pre-incubated in human serum. Conditions: for Activity of Various Vasopressin Analogs, 0 h: 0 h pre-incubation in pooled human serum at 37° C. (serum present); for Activity of Various Vasopressin Analogs, 0 h / Activity of Various Vasopressin Analogs, 1 h / Activity of Various Vasopressin Analogs, 2 h / Activity of Various Vasopressin Analogs, 4 h: Ca-influx in HUAEC, 50 nM per well; for Activity of Various Vasopressin Analogs, 1 h: 1 h pre-incubation in pooled human serum at 37° C.; for Activity of Various Vasopressin Analogs, 2 h: 2 h pre-incubation in pooled human serum at 37° C.; for Activity of Various Vasopressin Analogs, 4 h: 4 h pre-incubation in pooled human serum at 37° C.; for course of activity on incubation in human serum: in words. Set-up: key to Activity of Various Vasopressin Analogs, 0 h / Activity of Various Vasopressin Analogs, 1 h / Activity of Various Vasopressin Analogs, 2 h / Activity of Various Vasopressin Analogs, 4 h: “−” for no detectable activity; “+” to “+++” for slight to high activity; “+” to “+++” for slight to high activity; “+” to “+++” for slight to high activity. Type of data set: cell-based. The text has this: Ca-influx after vasopressin analog stimulation of human umbilical chord artery endothelial cells (HUAEC) was used to test the biological activity of the various vasopressin analogs. The material used were: 75 cm^2 tissue culture flasks, BD Bioscience, Bedford Mass. (catalogue number 137787) with 0.2 μm vented blue plug seal caps (catalogue number 353136); human umbilical artery endothelial cells (HUAEC), Lonza, Walkersville, Md. (catalogue number CC-2520); EGM-2 fully supplement medium, Lonza, Walkersville, Md. (catalogue number CC-3162); Fura-2 AM, Invitrogen/Molecular Probes, Carlsbad, Calif. (catalogue number F-1221) (Fura-2 AM is a high affinity, intracellular calcium indicator that is ratiometric and UV light-excitable; the acetoxymethyl (AM) ester form is useful for noninvasive intracellular loading as it is cell permeable. Once inside the cell the ester is clipped which renders the Fura-2 molecule cell impermeable and therefore trapped inside.); terlipressin derivatives custom made by Anaspec, San Jose Calif., according to inventors specifications; pooled human serum, Sigma, St. Louis, Mo. (catalogue number H4522); phosphate buffered saline (PBS), Fisher Scientific, Fair Lawn, N.J. (catalogue number BP399-500); trypsin-EDTA solution, 0.25%, Invitrogen/Gibco, Carlsbad, Calif. (catalogue number 25200-072); heat inactivated fetal bovine serum (FBS), Invitrogen/Gibco, Carlsbad, Calif. (catalogue number 10438-026); black polystyrene 96 well flat-bottom assay plates, Corning Inc., Corning, N.Y. (catalogue number 3916); Chameleon plate multilabel detection reader, Hidex, Turku, Finland, distributed by Bioscan, Washington, D.C.; dimethyl sulfoxide (DMSO), Fisher Scientific, Fair Lawn, N.J. (catalogue number D-136-1).
The methods used for tissue or cell culture are as follows: a vial of HUAEC (>0.5×10^6 cells) was thawed and seeded in two 75 cm^2 flasks with 15 ml EGM-2 medium each. Cells were grown over night and medium was changed. Media in the flasks were changed on a Monday, Wednesday, Friday schedule. Cells were split at approximately 80% confluency (using trypsin). Media were removed and the flasks were washed with 10 ml 1×PBS. The PBS was removed, 1.5 ml trypsin-EDTA solution was added and incubated for 5 min at 37° C. Three ml of FBS added and the cells were counted. The cells were centrifuged at 200×G for 5 min, resuspended in EGM-2 medium and distributed into new 75 cm2 flasks @ 3000-5000 cells per cm2.
To prepare for the Ca2+-influx assay, cells were distributed into one black 96 well plate @ 10^5 cells/well. Cells were allowed to adhere overnight and the medium was then removed. Fifty μg Fura-2 was dissolved in 50 μl DMSO and added to 10 ml PBS/2% FBS. The cells were stained with 20 μl of 5 μg/ml Fura-2 in PBS/2% FBS for 2 h, then 180 μl EGM-2 medium supplemented with CaCl2 and glucose was added (10 mM CaCl2 and 11.1 mM glucose final concentrations).
To prepare analogs for testing, 50 uM terlipressin (or derivative) stock solution in DMSO was prepared. […] (placed on ice after incubation).
To measure Ca-influx, Fura-2 fluorescence was measured for 4 repetitions per well at 340 nm ex/510 nm em and 420 nm ex/510 nm em (4 measurement before and 16 after injection of drug. At t=12 sec, 20 μl of terlipressin or derivative was injected as a 500 nM solution (or serum) for a final concentration of 50 nM per well. Fura-2 fluorescence was measured for […] per well at 340 nm ex/510 nm em and 420 nm ex/510 nm em (4 measurements before and 16 after injection of drug). The controls included injected human serum alone, and terlipressin or derivative dissolved in PBS as […]. All measurements were done in hexuplicate.
Data analysis was done using Graphpad Prism version 5.0 software (Graphpad software Inc, San Diego, Calif.). […]

A short description of data set [2]: Solubility in water of the synthesized peptide. Type of data set: physicochemical. Conditions: in words.
The subject of a further data set is rat ear model. In words: Rat ear model, maintenance of vasoconstriction (paleness of ears) after subcutaneous injection. Type of data set: in vivo. The following applies: for loss of paleness after: subcutaneous injection, ears examined after 6 and 24 h. As to the method: Using a rat ear model, a vasopressin analog with metal binding moiety of the present invention, His6Ter (“His6” disclosed as SEQ ID NO: 52), was evaluated for it ability to maintain vasoconstriction for an extended period of time. The analog was formulated at a 2% load in polymeric carrier containing 40PLPEG537-Zn-chelate. The peptide analog-polymeric complex was injected subcutaneously into the back of one set of rats, while terlipressin alone was also injected similarly in another set of rats. The ears were examined at baseline and at intervals up to 48 h.
Using the same model, the effects of delayed release of biologically-active lysine vasopressin from the peptide analog His6Ter (“His6” disclosed as SEQ ID NO: 52), with or without complexing in polymeric carrier, was tested. In the experiment, terlipressin was conjugated with a his tag metal binding moiety to result in the His6Ter peptide analog (“His6” disclosed as SEQ ID NO: 52). A portion of the His6Ter analog (“His6” disclosed as SEQ ID NO: 52) was formulated at 2% loading in 40PLPEG537-Zn-chelate. The three test materials were injected subcutaneously into groups of rats and the ears were examined after 6 and 24 h.

Where a SMILES comes first, the peptide text is derived from it. Bridges are numbered along the chain shown (N, C = ends). [ ]: non-standard residue; d: D form. The star is where a group is joined. ξ: configuration not given here. Lauroyl = CCCCCCCCCCCC(=O)*; Octanoyl = CCCCCCCC(=O)*; ξLac = CC(O)C(=O)O

Take `CCCCCCCCCCCC(=O)OC(C)C(=O)NCC(=O)NCC(=O)NCC(=O)N[C@H]1CSSC[C@@H](C(=O)N2CCC[C@H]2C(=O)N[C@@H](CCCCN)C(=O)NCC(N)=O)NC(=O)[C@H](CC(N)=O)NC(=O)[C@H](CCC(N)=O)NC(=O)[C@H](Cc2ccccc2)NC(=O)[C@H](Cc2ccc(O)cc2)NC1=O` (stereo partly drawn) [C12TerE, CH3(CH2)10CO—OHC(CH3)CO-Gly-Gly-Gly-Cys-Tyr-Phe-Gln-Asn-Cys-Pro-Lys-Gly-NH2] (Lauroyl-[ξLac]GGGCYFQNCPKG-NH2; disulfide 5-10): in data set [1], the “Activity of Various Vasopressin Analogs, 0 h” value was “+++”; the “Activity of Various Vasopressin Analogs, 1 h” value is given as “+”; the “Activity of Various Vasopressin Analogs, 2 h” value is given as “−”; the “Activity of Various Vasopressin Analogs, 4 h” value is recorded as “−”. In data set [2], the solubility in water result is on record as “limited solubility in water”.
Consider `N=C(N)NCCC[C@H](NC(=O)[C@@H]1CCCN1C(=O)[C@@H]1CSSC[C@H](NC(=O)CNC(=O)CNC(=O)CNC(=O)[C@H](Cc2c[nH]cn2)NC(=O)[C@H](Cc2c[nH]cn2)NC(=O)[C@H](Cc2c[nH]cn2)NC(=O)[C@H](Cc2c[nH]cn2)NC(=O)[C@H](Cc2c[nH]cn2)NC(=O)[C@@H](N)Cc2c[nH]cn2)C(=O)N[C@@H](Cc2ccc(O)cc2)C(=O)N[C@@H](Cc2ccccc2)C(=O)N[C@@H](CCC(N)=O)C(=O)N[C@@H](CC(N)=O)C(=O)N1)C(=O)NCC(N)=O` [His6Vas, His-His-His-His-His-His-Gly-Gly-Gly-Cys-Tyr-Phe-Gln-Asn-Cys-Pro-Arg-Gly-NH2] (H-HHHHHHGGGCYFQNCPRG-NH2; disulfide 10-15), for which, in data set [2], the solubility in water entry is “water soluble”.
Regarding `CCCCCCCC(=O)NCC(=O)NCC(=O)NCC(=O)N[C@H]1CSSC[C@@H](C(=O)N2CCC[C@H]2C(=O)N[C@@H](CCCCN)C(=O)NCC(N)=O)NC(=O)[C@H](CC(N)=O)NC(=O)[C@H](CCC(N)=O)NC(=O)[C@H](Cc2ccccc2)NC(=O)[C@H](Cc2ccc(O)cc2)NC1=O` [C8TerA, CH3(CH2)6CO-Gly-Gly-Gly-Cys-Tyr-Phe-Gln-Asn-Cys-Pro-Lys-Gly-NH2] (Octanoyl-GGGCYFQNCPKG-NH2; disulfide 4-9), in data set [1], the “Activity of Various Vasopressin Analogs, 0 h” value is recorded as “+++”; the “Activity of Various Vasopressin Analogs, 1 h” value is “+++”; the “Activity of Various Vasopressin Analogs, 2 h” value is recorded as “+++”; the “Activity of Various Vasopressin Analogs, 4 h” value is “+++”. Moreover, the solubility in water entry in data set [2] is “water soluble”.
With `NCCCC[C@H](NC(=O)[C@@H]1CCCN1C(=O)[C@@H]1CSSC[C@H](NC(=O)CNC(=O)CNC(=O)CNC(=O)[C@H](Cc2c[nH]cn2)NC(=O)[C@H](Cc2c[nH]cn2)NC(=O)[C@@H](N)Cc2c[nH]cn2)C(=O)N[C@@H](Cc2ccc(O)cc2)C(=O)N[C@@H](Cc2ccccc2)C(=O)N[C@@H](CCC(N)=O)C(=O)N[C@@H](CC(N)=O)C(=O)N1)C(=O)NCC(N)=O` [His3Ter, His-His-His-Gly-Gly-Gly-Cys-Tyr-Phe-Gln-Asn-Cys-Pro-Lys-Gly-NH2] (H-HHHGGGCYFQNCPKG-NH2; disulfide 7-12), the solubility in water result in data set [2] is “water soluble”.
Consider `NCCCC[C@H](NC(=O)[C@@H]1CCCN1C(=O)[C@@H]1CSSC[C@H](NC(=O)CNC(=O)CNC(=O)CN)C(=O)N[C@@H](Cc2ccc(O)cc2)C(=O)N[C@@H](Cc2ccccc2)C(=O)N[C@@H](CCC(N)=O)C(=O)N[C@@H](CC(N)=O)C(=O)N1)C(=O)NCC(N)=O` [Terlipressin, reference compound] (H-GGGCYFQNCPKG-NH2; disulfide 4-9), for which, in data set [1], the “Activity of Various Vasopressin Analogs, 0 h” value is listed as “+++”; the “Activity of Various Vasopressin Analogs, 1 h” value was “+”; the “Activity of Various Vasopressin Analogs, 2 h” value is “−”; the “Activity of Various Vasopressin Analogs, 4 h” value is given as “−”. Also, the “course of activity on incubation in human serum” value in data set [1] is reported as “loses its activity quickly”. Also, in data set [1] (listed as terlipressin), the “course of activity on incubation in human serum” value was “losses activity immediately afterwards”. In addition, in the data set on rat ear model (subcutaneous injection into the back, 6 h), the “ear colour at 6 h” value is “pale”. For the same compound, the “ear colour at 24 h” value with rat ear model (subcutaneous injection into the back, 24 h) is on record as “returned to a baseline color”. Further, the “loss of paleness after” value in the data set with rat ear model was determined as 6 h.
In the case of `CCCCCCCC(=O)OC(C)C(=O)NCC(=O)NCC(=O)NCC(=O)N[C@H]1CSSC[C@@H](C(=O)N2CCC[C@H]2C(=O)N[C@@H](CCCCN)C(=O)NCC(N)=O)NC(=O)[C@H](CC(N)=O)NC(=O)[C@H](CCC(N)=O)NC(=O)[C@H](Cc2ccccc2)NC(=O)[C@H](Cc2ccc(O)cc2)NC1=O` (stereo partly drawn) [C8TerE, CH3(CH2)6CO—OHC(CH3)CO-Gly-Gly-Gly-Cys-Tyr-Phe-Gln-Asn-Cys-Pro-Lys-Gly-NH2] (Octanoyl-[ξLac]GGGCYFQNCPKG-NH2; disulfide 5-10), the solubility in water entry in data set [2] is recorded as “water soluble”.
With `N=C(N)NCCC[C@H](NC(=O)[C@@H]1CCCN1C(=O)[C@@H]1CSSC[C@H](NC(=O)CNC(=O)CNC(=O)CNC(=O)[C@H](Cc2c[nH]cn2)NC(=O)[C@H](Cc2c[nH]cn2)NC(=O)[C@@H](N)Cc2c[nH]cn2)C(=O)N[C@@H](Cc2ccc(O)cc2)C(=O)N[C@@H](Cc2ccccc2)C(=O)N[C@@H](CCC(N)=O)C(=O)N[C@@H](CC(N)=O)C(=O)N1)C(=O)NCC(N)=O` [His3Vas, His-His-His-Gly-Gly-Gly-Cys-Tyr-Phe-Gln-Asn-Cys-Pro-Arg-Gly-NH2] (H-HHHGGGCYFQNCPRG-NH2; disulfide 7-12), in data set [2], the solubility in water entry was “water soluble”.
In the case of `NCCCC[C@H](NC(=O)[C@@H]1CCCN1C(=O)[C@@H]1CSSC[C@H](NC(=O)CNC(=O)CNC(=O)CNC(=O)[C@H](Cc2c[nH]cn2)NC(=O)[C@H](Cc2c[nH]cn2)NC(=O)[C@H](Cc2c[nH]cn2)NC(=O)[C@H](Cc2c[nH]cn2)NC(=O)[C@H](Cc2c[nH]cn2)NC(=O)[C@@H](N)Cc2c[nH]cn2)C(=O)N[C@@H](Cc2ccc(O)cc2)C(=O)N[C@@H](Cc2ccccc2)C(=O)N[C@@H](CCC(N)=O)C(=O)N[C@@H](CC(N)=O)C(=O)N1)C(=O)NCC(N)=O` [His6Ter, His-His-His-His-His-His-Gly-Gly-Gly-Cys-Tyr-Phe-Gln-Asn-Cys-Pro-Lys-Gly-NH2] (H-HHHHHHGGGCYFQNCPKG-NH2; disulfide 10-15), in the data set on rat ear model, the “loss of paleness after” value is 6 h. The solubility in water result in data set [2] is given as “water soluble”.

Source of the values: patent US8518876B2, “Composition for long-acting peptide analogs” (Pharmaln Corporation, priority 2007, dated 2013).
